Here are results for 30 compounds from patent publication US8962627B2, “Oxime derivatives and their use as allosteric modulators of metabotropic glutamate receptors” (Prestwick Chemical, Inc., priority 2009, dated 2015).

The term melting point denotes the temperature, or range, at which the solid turns liquid.

Structures are written as SMILES. Structures can show the parent of a compound that is named as a salt.

Data set [1] deals with T1, human mGluR4 transiently over-expressed in HEK-293 cells (Homo sapiens, UniProt Q14833).
T1 construct: expressed in transfected cells; host or cells: HEK-293 cells, transient co-transfection by electroporation
T1 sequence (Q14833 33-912): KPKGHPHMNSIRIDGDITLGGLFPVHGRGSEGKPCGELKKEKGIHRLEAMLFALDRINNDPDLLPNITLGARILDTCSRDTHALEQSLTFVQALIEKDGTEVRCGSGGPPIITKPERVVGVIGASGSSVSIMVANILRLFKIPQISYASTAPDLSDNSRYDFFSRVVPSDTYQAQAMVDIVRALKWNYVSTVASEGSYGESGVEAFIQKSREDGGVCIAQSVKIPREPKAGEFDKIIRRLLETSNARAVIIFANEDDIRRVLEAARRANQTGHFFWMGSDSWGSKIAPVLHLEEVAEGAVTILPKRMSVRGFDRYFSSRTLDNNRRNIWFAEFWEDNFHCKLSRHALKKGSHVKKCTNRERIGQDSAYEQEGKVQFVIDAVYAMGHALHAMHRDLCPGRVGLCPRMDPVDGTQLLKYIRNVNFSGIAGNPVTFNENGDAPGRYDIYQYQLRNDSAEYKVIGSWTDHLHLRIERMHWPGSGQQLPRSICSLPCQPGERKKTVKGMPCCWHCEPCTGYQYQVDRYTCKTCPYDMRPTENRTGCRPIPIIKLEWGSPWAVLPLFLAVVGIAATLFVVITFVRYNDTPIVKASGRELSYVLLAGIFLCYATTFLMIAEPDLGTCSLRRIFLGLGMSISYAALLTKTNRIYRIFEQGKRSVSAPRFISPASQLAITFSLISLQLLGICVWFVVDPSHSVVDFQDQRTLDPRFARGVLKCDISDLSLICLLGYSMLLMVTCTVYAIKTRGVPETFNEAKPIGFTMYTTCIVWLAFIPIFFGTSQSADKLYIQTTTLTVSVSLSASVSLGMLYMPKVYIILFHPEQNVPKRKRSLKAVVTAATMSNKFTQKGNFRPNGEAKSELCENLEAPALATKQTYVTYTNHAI
Nature of the data set: Human mGluR4 positive allosteric modulator evaluation using Ca++ functional assay. Particulars: HEK-293 cells co-transfected with hmGluR4 and chimeric G protein; EC10 glutamate; intracellular calcium (Fluo4AM); read-out: mean EC50 of agonist/positive allosteric modulator activity on mGluR4. It counts as cell-based. The method, then: Human mGluR4 Positive Allosteric Modulator Evaluation Using Ca^++ Functional Assay
Compounds of the present invention were tested successively for their agonist and positive allosteric modulator activities on human mGluR4 transiently over-expressed in HEK-293 cells. They exert agonist activity if, by themselves in absence of the endogenous glutamate, they are able to activate mGluR4; and they exert positive allosteric modulator activity if they increase the action of the endogenous glutamate.
Cell Culture and Transfection
HEK-293 cells were maintained in Modified Eagle's Medium supplemented with 10% Foetal Calf Serum, 1% Penicillin/Streptomycin and 1% non essential amino acids at 37° C./5% CO2.
Cells were co-transfected by electroporation with two DNA plasmids encoding hmGluR4 and a chimeric G protein allowing redirection of the activation signal to intracellular calcium pathway. Cells were plated after transfection onto polyornithine coated, clear bottom, black-walled, 96-well plates and cultured for 24 h.
Calcium Assay EC50 Determination
Receptor activity was detected by changes in intracellular calcium measured using the fluorescent Ca^2+ sensitive dye, Fluo4AM (Molecular Probes).
The day of the assay, medium was aspirated and replaced during 3 hours by medium without serum supplemented with 1% Glutamax, 1% Penicillin/Streptomycin and 1% non essential amino acids. Then, cells were washed with freshly prepared buffer B (HBSS 1×(PAA), Hepes 20 mM, MgSO4-7H2O 1 mM, Na2CO3 3.3 mM, CaCl2-2H2O 1.3 mM, 0.5% BSA, Probenecid 2.5 mM) and loaded at 37° C. in 5% CO2 for 1.5 hours with buffer B containing 1 μM Fluo4AM 0.1 mg/mL Pluronic Acid, 7 μg/mL Glutamate Pyruvate Transaminase and 2 mM sodium pyruvate. Afterwards cells were washed twice with buffer B and 50 μL of this buffer were added to each well. Addition of compounds and intracellular Ca^2+ measurements (excitation 485 nm, emission 525 nm) were performed by the fluorescence microplate reader FlexStation (Molecular Devices).
Agonist and positive allosteric modulator activities of compounds were consecutively evaluated on the same cells plate. Agonist activity was first tested during 60 s with the addition of compound alone on the cells. Then, the cells were stimulated by an EC10 glutamate concentration and fluorescence recorded for additional 60 s. EC10 glutamate concentration is the concentration giving 10% of the maximal glutamate response. Agonist and/or positive allosteric modulator activity(ies) were evaluated in comparison to basal signal evoked by EC10 glutamate alone.
For EC50 determination, a dose-response test was performed using 6 to 9 concentrations of each compound of the invention. Dose-response curves were fitted using the sigmoidal dose-response (variable slope) analysis in GraphPad Prism program (Graph Pad Inc) and EC50 of agonist/positive allosteric modulator activity was calculated. Dose-response experiments were all performed in duplicate, two times independently.
(Calcium assays in cells follow changes in intracellular calcium, usually with a dye or a luminescent sensor.)

The compound `Cl.ON=c1cc(-c2cc3sccc3cn2)oc2ccc(OCCCc3ccncc3)cc12` [Example 134, 6-(3-Pyridin-4-yl-propoxy)-2-thieno[3,2-c]pyridin-6-yl-chromen-4-one oxime, hydrochloride] showed a melting point of 236 to 238 °C. Further, the EC50 in data set [1] was under 1000 nM.

`CN(C)c1ccc2oc(-c3cc4ccccc4cn3)cc(=NO)c2c1` [Example 39, 6-dimethylamino-2-isoquinolin-3-yl-chromen-4-one oxime]: the melting point lay in the range of 223 to 225 °C. Besides, in data set [1], the EC50 is under 5000 nM. On the same counts, the results for `COCCOc1ccc2oc(-c3cc4ccccc4cn3)cc(=NO)c2c1` (mixture of isomers) [Example 43, 2-isoquinolin-3-yl-6-(2-methoxy-ethoxy)-chromen-4-one oxime] are 198 to 204 °C and under 1000 nM. The matching figures for `COc1cccc(C#Cc2ccc3c(=NO)cc(-c4cc5ccccc5cn4)oc3c2)c1` (mixture of isomers) [Example 28, 2-isoquinolin-3-yl-7-(3-methoxyphenyl)ethynyl-chromen-4-one oxime]: 248 to 251 °C and under 1000 nM. Compound `CN(C)CCOc1ccc2oc(-c3cc4ccccc4cn3)cc(=NO)c2c1` (mixture of isomers) [Example 44, 6-(2-dimethylamino-ethoxy)-2-isoquinolin-3-yl-chromen-4-one oxime] returned a melting point of 203 to 205 °C. For the same compound, in data set [1], the EC50 was under 5000 nM. On the same counts, the results for `Cc1ccc2oc(-c3cc4ccccc4cn3)cc(=NO)c2c1` (mixture of isomers) [Example 5, 2-isoquinolin-3-yl-6-methyl-chromen-4-one oxime] are 260 to 264 °C and under 1000 nM.

Take `Cl.ON=c1cc(-c2cc3sccc3cn2)oc2ccc(OCCN3CCC(F)(F)CC3)cc12` [Example 128, 6-[2-(4,4-Difluoro-piperidin-1-yl)-ethoxy]-2-thieno[3,2-c]pyridin-6-yl-chromen-4-one oxime, hydrochloride]: the melting point lay in the range of 225 to 230 °C. Also, the EC50 in data set [1] is under 1000 nM. On the same counts, the results for `COCCOc1ccc2c(=NO)cc(-c3cc4ccccc4cn3)oc2c1` (mixture of isomers) [Example 57, 2-isoquinolin-3-yl-7-(2-methoxy-ethoxy)-chromes-4-one oxime] are 223 to 225 °C and under 5000 nM. On the same counts, the results for `ON=c1cc(-c2cc3ccccc3cn2)oc2cc(/C=C/c3ccccc3)ccc12` (mixture of isomers) [Example 21, 2-isoquinolin-3-yl-7-((E)-styryl)-chromen-4-one oxime] are 273 to 276 °C and under 5000 nM. The matching figures for `Cl.ON=c1cc(-c2cn3cccc3cn2)oc2ccc(OCCn3ccnc3)cc12` [Example 125, 6-(2-Imidazol-1-yl-ethoxy)-2-pyrrolo[1,2-a]pyrazin-3-yl-chromen-4-one oxime, hydrochloride]: 238 to 240 °C and under 1000 nM. The compound `CN(C(=O)COc1ccc2oc(-c3cc4cccn4cn3)cc(=NO)c2c1)c1ccc(F)cc1` [Example 151, N-(4-Fluoro-phenyl)-2-{4-hydroxyimino-2-pyrrolo[1,2-c]pyrimidin-3-yl-4H-chromen-6-yloxy}-N-methyl-acetamide] had a melting point of 268 to 272 °C. Also, the EC50 in data set [1] was under 5000 nM. On to `ON=c1cc(-c2cc3cnccc3cn2)oc2ccccc12` [Example 61, 2-[2,6]Naphthyridin-3-yl-chromen-4-one oxime], for which the EC50 in data set [1] was under 1000 nM. The same measure, in the same setting: with `ON=c1cc(-c2cc3cccn3cn2)oc2cc(OCCCN3CCOCC3)ccc12` [Example 143, 7-(3-Morpholin-4-yl-propoxy)-2-pyrrolo[1,2-c]pyrimidin-3-yl-chromen-4-one oxime hydrochloride] the figure was under 1000 nM; with `ON=c1cc(-c2cc3cccn3cn2)oc2ccc(OCCc3ccc(F)cc3)cc12` [Example 109, 6-[2-(4-fluoro-phenyl)-ethoxy]-2-pyrrolo[1,2-c]pyrimidin-3-yl-chromen-4-one oxime, hydrochloride], under 1000 nM. The same measure, in the same setting: with `ON=c1cc(-c2cc3ccccc3cn2)oc2ccc(C3CC3)cc12` (mixture of isomers) [Example 34, 6-cyclopropyl-2-isoquinolin-3-yl-chromen-4-one oxime] the figure was under 5000 nM; with `ON=c1cc(-c2cc3cccn3cn2)oc2ccc(OCCCOc3ccc(F)cc3)cc12` [Example 161, 6-[3-(4-Fluoro-phenoxy)-propoxy]-2-pyrrolo[1,2-c]pyrimidin-3-yl-chromen-4-one oxime], under 1000 nM.

For the compound `ON=c1cc(-c2cc3cccn3cn2)oc2ccc(CCCN3CCOCC3)cc12` [Example 106, 6-(3-morpholin-4-yl-propyl)-2-pyrrolo[1,2-c]pyrimidin-3-yl-chromen-4-one oxime, hydrochloride], the EC50 in data set [1] is under 1000 nM. Same read-out and setting: with `COn1ccc2cc(-c3cc(=NO)c4ccccc4o3)ncc21` [Example 78, 2-(1-Methoxy-1H-pyrrolo[2,3-c]pyridin-5-yl)-chromen-4-one oxime] the figure was under 5000 nM. Still for that read-out and setting: under `ON=c1cc(-c2cc3cccn3cn2)oc2ccc(OCCn3ccnc3)cc12` [Example 105, 6-(2-imidazol-1-O-ethoxy)-2-pyrrolo[1,2-c]pyrimidin-3-yl-chromen-4-one oxime] stands under 1000 nM. Same read-out and setting: with `ON=c1cc(-c2cc3cccn3cn2)oc2ccc(Br)cc12` (mixture of isomers) [Example 66, 6-bromo-2-Pyrrolo[1,2-c]pyrimidin-3-yl-chromen-4-one oxime] the figure was under 5000 nM; with `ON=c1cc(-c2cc3cccn3cn2)oc2ccc(OCCCOc3ccccc3)cc12` [Example 162, 6-(3-Phenoxy-propoxy)-2-pyrrolo[1,2-c]pyrimidin-3-yl-chromen-4-one oxime], under 1000 nM; with `ON=c1cc(-c2cc3cccn3cn2)oc2ccc(OCCCOc3ccc(F)c(F)c3)cc12` [Example 164, 6-[3-(3,4-Difluoro-phenoxy)-propoxy]-2-pyrrolo[1,2-c]pyrimidin-3-yl-chromen-4-one oxime], under 1000 nM. On to `ON=c1cc(-c2cc3ccccc3cn2)oc2cc(C#Cc3ccccc3)ccc12` (mixture of isomers) [Example 20, 2-isoquinolin-3-yl-7-phenylethynyl-chromen-4-one oxime], for which, in data set [1], the EC50 is under 1000 nM. As to `ON=c1cc(-c2cc3cccn3cn2)oc2cccc(OCCCN3CCOCC3)c12` [Example 157, 5-(3-Morpholin-4-yl-propoxy)-2-pyrrolo[1,2-c]pyrimidin-3-yl-chromen-4-one oxime, hydrochloride], the EC50 in data set [1] is under 5000 nM. As to `COc1ccc(C#Cc2ccc3c(=NO)cc(-c4cc5ccccc5cn4)oc3c2)cc1` (mixture of isomers) [Example 31, 2-isoquinolin-3-yl-7-(4-methoxyphenyl)ethynyl-chromen-4-one oxime], the EC50 in data set [1] is under 5000 nM. The same measure, in the same setting: under `ON=c1cc(-c2cc3ccn(O)c3cn2)oc2ccccc12` [Example 76, 2-(1-Hydroxy-7H-pyrrolo[2,3-c]pyridin-5-yl)-chromen-4-one oxime] stands under 5000 nM; under `ON=c1cc(-c2cc3cccn3cn2)oc2cc(OCCN3CCOCC3)ccc12` [Example 142, 7-(2-Morpholin-4-yl-ethoxy)-2-pyrrolo[1,2-c]pyrimidin-3-yl-chromen-4-one oxime, hydrochloride], under 1000 nM; under `O=C(COc1ccc2oc(-c3cc4cccn4cn3)cc(=NO)c2c1)Nc1ccc(F)cc1` [Example 150, N-(4-Fluoro-phenyl)-2-{4-hydroxyimino-2-pyrrolo[1,2-c]pyrimidin-3-yl-4H-chromen-6-yloxy}-acetamide], under 1000 nM.

As for `CC1CCCN1CCOc1ccc2oc(-c3cc4cccn4cn3)cc(=NO)c2c1` (centres unmarked) [Example 92, 6-[2-(2-methyl-pyrrolidin-1-yl)-ethoxy]-2-pyrrolo[1,2-c]pyrimidin-3-yl-chromen-4-one oxime, hydrochloride], the EC50 in data set [1] is under 5000 nM. Same read-out and setting: with `COCCOc1ccc2oc(-c3cc4cccn4cn3)cc(=NO)c2c1` [Example 67, 6-methoxyethoxy-2-Pyrrolo[1,2-c]pyrimidin-3-yl-chromen-4-one oxime] the figure was under 1000 nM.
